Our source for the Emax and EC50 values is US9656962B2, “Ring-contracted morphinans and the use thereof” (Purdue Pharma L.P., priority 2013, dated 2017).

Format in all cases: biochemical
The target in assay [1] is T1, κ-opioid receptor (Homo sapiens (Human), UniProt P41145). As to the kind of experiment: κ-opioid receptor [35S]GTPγS functional assay, U-2 OS cells (Table 5). The settings on record: for Emax: relative to U69,593; for EC50: κ GTP. In a few lines:
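[35S]GTPγS binding in κ receptor membranes (0.026 μg/μl protein) with 10 μg/mL saponin, 3 μM GDP and 0.20 nM [35S]GTPγS in pH 7.4 HEPES/NaCl/MgCl2 buffer. Agonist incubation lasted 30 min at about 25 °C, followed by filtration and scintillation counting. Emax is expressed relative to U69,593.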

The target in assay [2] is T2, μ-opioid receptor (Homo sapiens (Human), UniProt P35372). Put plainly: μ-opioid receptor [35S]GTPγS functional assay, HEK-293 or CHO cells (Table 4). The settings on record: for Emax: relative to DAMGO; for EC50: μ GTP. On the procedure: μ-Opioid Receptor Functional Assay Procedures: [^35S]GTPγS functional assays were conducted using freshly thawed μ-receptor membranes prepared in-house from a cell line expressing recombinant μ opioid receptor in a HEK-293, CHO or U-2 OS cell background, or purchased from a commercial source (Perkin Elmer, Shelton, Conn.; or DiscovRx, Fremont, Calif.). Assay reactions were prepared by sequentially adding the following reagents to binding buffer (100 mM NaCl, 10 mM MgCl2, 20 mM HEPES, pH 7.4) on ice (final concentrations indicated): membrane protein (0.026 mg/mL), saponin ([…]), GDP ([…]) and [^35S]GTPγS (0.20 nM; Perkin Elmer, Shelton, Conn.). The prepared membrane solution (190 μl/well) was transferred to 96-shallow well polypropylene plates containing 10 μl of 20× concentrated stock solutions of the agonist [D-Ala^2, N-methyl-Phe^4 Gly-ol^5]-enkephalin (DAMGO) prepared in dimethyl sulfoxide (DMSO). Plates were incubated for 30 min at about 25° C. with shaking Reactions were terminated by rapid filtration onto 96-well Unifilter GF/B filter plates (Perkin Elmer, Shelton, Conn.) using a 96-well tissue harvester (Perkin Elmer, Shelton, Conn.) followed by three filtration washes with 200 μl of ice-cold wash buffer (10 mM NaH2PO4, 10 mM Na2HPO4, pH 7.4). Filter plates were subsequently dried at 50° C. for 2-3 hours. BetaScint scintillation cocktail (Perkin Elmer, Shelton, Conn.) was added (50 μl/well) and plates were counted using a Packard Top-Count for 1 min/well. Data were analyzed using the sigmoidal dose-response curve fitting functions in GraphPad PRISM v. 3.0, or an in-house function for non-linear, sigmoidal dose-response curve-fitting. [^35S]GTPγS functional assays can also be conducted using freshly thawed μ-receptor membranes prepared from a cell line expressing recombinant μ opioid receptor in a CHO-K1 cell background.
μ GTP Emax (%) is the maximal effect elicited by a compound relative to the effect elicited by DAMGO, a standard μ agonist.
(§1) In TABLE 4, activity response of certain Compounds of the Invention to the μ- and κ-opioid receptors was determined as described above for functional assays using HEK-293 or CHO cells.
(GTPγS is a poorly hydrolysed GTP analogue; its binding reports G protein activation.)

Assay [3] has as its target T1, κ-opioid receptor. Put plainly: κ-opioid receptor [35S]GTPγS functional assay, HEK-293 or CHO cells (Table 4). Particulars: for Emax: relative to U69,593; for EC50: κ GTP. On the procedure: κ-Opioid Receptor Functional Assay Procedures: Functional [^35S]GTPγS binding assays were conducted as follows. κ opioid receptor membrane solution was prepared by sequentially adding final concentrations of 0.026 μg/μl κ membrane protein (in-house), 10 μg/mL saponin, 3 μM GDP and 0.20 nM [^35S]GTPγS to binding buffer (100 mM NaCl, 10 mM MgCl2, 20 mM HEPES, pH 7.4) on ice. The prepared membrane solution (190 μl/well) was transferred to 96-shallow well polypropylene plates containing 10 μl of 20× concentrated stock solutions of agonist prepared in DMSO. Plates were incubated for 30 min at a temperature of about 25° C. with shaking. Reactions were terminated by rapid filtration onto 96-well Unifilter GF/B filter plates (Perkin Elmer, Shelton, Conn.) using a 96-well tissue harvester (Packard) and followed by three filtration washes with 200 μl ice-cold binding buffer (10 mM NaH2PO4, 10 mM Na2HPO4, pH 7.4). Filter plates were subsequently dried at 50° C. for 2-3 hours. Fifty μl/well scintillation cocktail (Perkin Elmer, Shelton, Conn.) was added and plates were counted in a Packard Top-Count for 1 min/well.
κ GTP Emax (%) is the maximal effect elicited by a compound relative to the effect elicited by U69,593.
as §1

Assay [4] concerns the target T2, μ-opioid receptor. Put plainly: μ-opioid receptor [35S]GTPγS functional assay, U-2 OS cells (Table 5). Particulars: for Emax: relative to DAMGO; for EC50: μ GTP. In a few lines: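 Membranes (0.026 mg/mL) from cells expressing recombinant human μ-opioid receptor in a U-2 OS background were incubated with 0.20 nM [35S]GTPγS, 3 mM GDP and saponin in 20 mM HEPES pH 7.4, 100 mM NaCl, 10 mM MgCl2 for 30 min at about 25 °C. Filter-bound radioactivity counted; sigmoidal dose-response fits gave values, Emax relative to DAMGO.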

Where only a bound is given, the exact number is not on record here.

Regarding `N[C@@H]1CC23CCN(CC4CC4)[C@H](Cc4ccc(O)cc42)[C@]3(O)C1` (stereo in doubt) [Compound 22, (2R,3aS,4R,9bS)-2-amino-12-(cyclopropylmethyl)-1,2,3,3a,4,5-hexahydro-4,9b-(epiminoethano)-cyclopenta[a]naphthalene-3a,8-diol], the Emax (usually the greatest response seen or fitted, relative to the assay's reference) at κ-opioid receptor [1] was found to be 101 ± 1.76%; on μ-opioid receptor [2] it was 1%; at κ-opioid receptor [3], 77 ± 1%; at μ-opioid receptor [4] it was 20.7 ± 2.4%. The EC50 (as a rule, the concentration that produces a half-maximal response) at κ-opioid receptor [1] was 25.4 ± 2.09 nM; on μ-opioid receptor [2] (bound given in μM), above 20 µM; at κ-opioid receptor [3] it was 25.7 ± 4.99 nM; at μ-opioid receptor [4] it was 111 ± 14.1 nM.

For the compound `Cc1ccc(CNC(=O)[C@@H]2C[C@]34CCN(CC5CC5)[C@H](Cc5ccc(O)cc53)[C@]4(O)C2)cc1` [Compound 37, (2R,3aS,4R,9bS)-12-(cyclopropylmethyl)-3a,8-dihydroxy-N-(4-methylbenzyl)-1,2,3,3a,4,5-hexahydro-4,9b-(epimino-ethano)cyclopenta[a]naphthalene-2-carboxamide], the maximum response (Emax) on κ-opioid receptor [1] stood at 105.3 ± 0.88%; on μ-opioid receptor [2], 1%; at κ-opioid receptor [3], 32.5 ± 2.1%; at μ-opioid receptor [4], 30.7 ± 2.67%. For the same compound, the concentration for a half-maximal effect (EC50) at κ-opioid receptor [1] is 0.97 ± 0.11 nM; on μ-opioid receptor [2] (bound given in μM), above 20 µM; on κ-opioid receptor [3], 1.74 ± 0.39 nM; at μ-opioid receptor [4], 8.48 ± 2.28 nM.

With `CC(C)CNC(=O)[C@H]1C[C@]23CCN(CC4CC4)[C@H](Cc4ccc(O)cc42)[C@]3(O)C1` [Compound 36, (2S,3aS,4R,9bS)-12-(cyclopropylmethyl)-3a,8-dihydroxy-N-isobutyl-1,2,3,3a,4,5-hexahydro-4,9b-(epiminoethano)-cyclopenta[a]naphthalene-2-carboxamide], the maximal effect (Emax) amounted to 108 ± 4.1% at κ-opioid receptor [1], 1% at μ-opioid receptor [2], 94.7 ± 3.71% at κ-opioid receptor [3] and 47.7 ± 3.18% on μ-opioid receptor [4]. For the same compound, the EC50 is 0.27 ± 0.019 nM at κ-opioid receptor [1], above 20 µM at μ-opioid receptor [2] (bound given in μM), 2.24 ± 0.46 nM at κ-opioid receptor [3] and 1.96 ± 0.27 nM at μ-opioid receptor [4].

Take `O=C(NCc1ccc(Cl)cc1)[C@@H]1C[C@]23CCN(CC4CC4)[C@H](Cc4ccc(O)cc42)[C@]3(O)C1` [Compound 43, (2R,3aS,4R,9bS)-N-(4-chlorobenzyl)-12-(cyclopropylmethyl)-3a,8-dihydroxy-1,2,3,3a,4,5-hexahydro-4,9b-(epimino-ethano)cyclopenta[a]naphthalene-2-carboxamide]: the Emax on κ-opioid receptor [1] is 102 ± 5.9%; on μ-opioid receptor [2], 11 ± 0.82%; at μ-opioid receptor [4] it was 41.3 ± 2.03%. For the same compound, the EC50 on κ-opioid receptor [1] amounted to 0.67 ± 0.02 nM; at μ-opioid receptor [2], 0.00835 ± 0.0018 µM; at μ-opioid receptor [4], 4.55 ± 0.14 nM.

Turning to `O=C(NCc1ccc(Cl)c(Cl)c1)[C@@H]1C[C@]23CCN(CC4CC4)[C@H](Cc4ccc(O)cc42)[C@]3(O)C1` [Compound 46, (2R,3aS,4R,9bS)-12-(cyclopropylmethyl)-N-(3,4-dichlorobenzyl)-3a,8-dihydroxy-1,2,3,3a,4,5-hexahydro-4,9b-(epimino-ethano)cyclopenta[a]naphthalene-2-carboxamide], the maximal effect (Emax) on κ-opioid receptor [1] stood at 106 ± 4.26%; at μ-opioid receptor [2] it was 0%; at κ-opioid receptor [3], 32 ± 5%; on μ-opioid receptor [4], 38 ± 1.73%. Moreover, the half-maximal effective concentration (EC50) is 0.11 ± 0.01 nM on κ-opioid receptor [1], above 20 µM at μ-opioid receptor [2] (bound given in μM), 0.2 ± 0.072 nM on κ-opioid receptor [3] and 0.91 ± 0.05 nM at μ-opioid receptor [4].

`COc1ccc2c(c1)[C@]13CCN(CC4CC4)[C@H](C2)[C@]1(O)C[C@H](C#N)C3` [Compound 25, (2R,3aS,4R,9bS)-12-(cyclopropylmethyl)-3a-hydroxy-8-methoxy-1,2,3,3a,4,5-hexahydro-4,9b-(epiminoethano)-cyclopenta[a]naphthalene-2-carbonitrile]: the maximum response (Emax) on κ-opioid receptor [1] is 107 ± 4.16%; at μ-opioid receptor [2], 12 ± 2.08%; on μ-opioid receptor [4], 54.3 ± 4.1%. For the same compound, the 50% effective concentration (EC50) turned out to be 234 ± 28.5 nM at κ-opioid receptor [1], 0.616 ± 0.0409 µM at μ-opioid receptor [2] and 228 ± 25.4 nM on μ-opioid receptor [4].

Take `O=C(NCc1ccc(O)cc1)[C@H]1C[C@]23CCN(CC4CC4)[C@H](Cc4ccc(O)cc42)[C@]3(O)C1` [Compound 40, (2S,3aS,4R,9bS)-12-(cyclopropylmethyl)-3a,8-dihydroxy-N-(4-hydroxybenzyl)-1,2,3,3a,4,5-hexahydro-4,9b-(epiminoethano)cyclopenta[a]naphthalene-2-carboxamide]: the values for the Emax at κ-opioid receptor [1], on μ-opioid receptor [2] and at μ-opioid receptor [4] were 97.7 ± 1.86%, 1% and 29.3 ± 1.33%, respectively. Moreover, the EC50 was 0.73 ± 0.07 nM on κ-opioid receptor [1], above 20 µM at μ-opioid receptor [2] (bound given in μM) and 1.45 ± 0.068 nM on μ-opioid receptor [4].

`CN1CC[C@]23C[C@@H](C(N)=O)C[C@@]2(O)[C@H]1Cc1ccc(O)cc13` [Compound 77, (2R,3aS,4R,9bS)-3a,8-dihydroxy-12-methyl-1,2,3,3a,4,5-hexahydro-4,9b-(epiminoethano)cyclopenta[a]naphthalene-2-carboxamide]: the values for the maximal response (Emax) at κ-opioid receptor [1], on μ-opioid receptor [2] and on μ-opioid receptor [4] were 65.3 ± 6.44%, 19.6 ± 5.65% and 85 ± 2.52%, respectively. For the same compound, the values for the EC50 at κ-opioid receptor [1], on μ-opioid receptor [2] and at μ-opioid receptor [4] were 1150 ± 221 nM, 0.58 ± 0.131 µM and 389 ± 74 nM, respectively.

With `COc1ccc2c(c1)[C@]13CCN(CC4CC4)[C@H](C2)[C@]1(O)C[C@@H](C(=O)O)C3` [Compound 15, (2S,3aS,4R,9bS)-12-(cyclopropylmethyl)-3a-hydroxy-8-methoxy-1,2,3,3a,4,5-hexahydro-4,9b-(epiminoethano)-cyclopenta[a]naphthalene-2-carboxylic acid], the maximal response (Emax) at κ-opioid receptor [1] is 79.7 ± 5.81%; at μ-opioid receptor [2], 7%; at μ-opioid receptor [4], 31.6 ± 3.21%. Moreover, the concentration giving a half-maximal response (EC50) on κ-opioid receptor [1] is 2900 ± 82.3 nM; on μ-opioid receptor [2] (bound given in μM), above 20 µM; on μ-opioid receptor [4] it was 343 ± 110 nM.

Take `O=C(NCc1ccc(O)cc1)[C@@H]1C[C@]23CCN(CC4CC4)[C@H](Cc4ccc(O)cc42)[C@]3(O)C1` [Compound 39, (2R,3aS,4R,9bS)-12-(cyclopropylmethyl)-3a,8-dihydroxy-N-(4-hydroxybenzyl)-1,2,3,3a,4,5-hexahydro-4,9b-(epimino-ethano)cyclopenta[a]naphthalene-2-carboxamide]: the Emax on κ-opioid receptor [1] stood at 91.7 ± 1.86%; at μ-opioid receptor [2] it was 15 ± 1.73%; on μ-opioid receptor [4], 42 ± 1%. Further, the 50% effective concentration (EC50) at κ-opioid receptor [1] was determined as 1.85 ± 0.097 nM; on μ-opioid receptor [2], 0.0375 ± 0.0126 µM; on μ-opioid receptor [4], 11.1 ± 0.28 nM.

As for `COc1ccc2c(c1)C13CCN(CC4CC4)[C@H](C2)[C@]1(O)C[C@@H](N)C3` (stereo in doubt) [Compound 28, (2S,3aS,4R,9bS)-2-amino-12-(cyclopropylmethyl)-8-methoxy-1,2,3,3a,4,5-hexahydro-4,9b-(epiminoethano)cyclopenta[a]naphthalene-3a-ol], the maximum response (Emax) at κ-opioid receptor [1] is 106.7 ± 0.88%; at μ-opioid receptor [2] it was 7.5%; at μ-opioid receptor [4] it was 35.7 ± 5.49%. Moreover, the values for the EC50 at κ-opioid receptor [1], at μ-opioid receptor [2] (bound given in μM) and on μ-opioid receptor [4] were 179 ± 16.4 nM, above 20 µM and 326 ± 77.9 nM, respectively.
